Experimental data taken from PMC6154694, “Absorption, Metabolic Stability, and Pharmacokinetics of Ginger Phytochemicals” (Molecules : A Journal of Synthetic Chemistry and Natural …, 2017).

Tests used:
[1] = Solubility and stability in simulated intestinal fluid (SIF); type: in vitro ADME; conditions: pH 6.8, 37 °C, n = 2
Description: SGF and SIF were prepared as per USP method. Briefly, SGF was prepared by adding 2 g of sodium chloride and 3.2 g of pepsin with water and pH was adjusted to 1.2 ± 0.1 using hydrochloric acid (7 mL) and volume made up to 1 L. SIF was prepared by dissolving 6.8 g monobasic potassium phosphate and 10 g pancreatin in Milli-Q water (Millipore, Billerica, MA, USA). pH was adjusted to 6.8 ± 0.1 with sodium hydroxide solution and volume was made upto 1 L. Reactions were initiated by spiking DMSO stock solutions of GE phenolics 10 μL into 1990 μL of SGF and SIF incubated at 37 °C for 10 min. Samples (200 μL) were withdrawn at 0, 15, 30, and 60 min for SGF and at 0, 30, 60, and 120 min for SIF and quenched with 200 μL acetonitrile containing internal standard.

[2] = Liver microsomal stability, dog; type: in vitro ADME, Beagle dog; conditions: protein 0.5 mg/mL; for remaining at 0.5 h, 10 µM: Beagle, pooled liver microsomes, pH 7.4, substrate 10 µM, n = 2, read-out: % Remaining at 30 min; for Intrinsic Clearance: dog liver microsomes, substrate 10 µM, 45 mg protein/g liver
Description: Pooled liver microsomes from CD1 mouse, IGS Sprague-Dawley rat, Beagle dog, and mixed gender human were used for assays. Incubations (1 mL) consisted of liver microsomes (0.5 mg/mL), NADPH (1 mM) and 100 mM sodium phosphate buffer (pH 7.4). Following pre-incubation (10 min, 37 °C), reactions were initiated by spiking ACN/DMSO (80:20) stock solutions of GE phenolics (5 μL, 10 μM). Samples (100 μL) were withdrawn at 0, 5, 10, 15, 20 and 30 min and quenched with 200 μL acetonitrile containing internal standard. Concomitant NADPH-free control incubations were prepared similarly.

| half-life at 10 µM [1] [h] | remaining at 0.5 h, 10 µM [2] [%] | Intrinsic Clearance [2] [mL/min/g Liver] | Structure (SMILES) |
| --- | --- | --- | --- |
| > 2 | 45 | 5.6 | CCCCCCCCCC(O)CC(=O)CCc1ccc(O)c(OC)c1 (stereo not drawn) [10G, 10-gingerol] |
| > 2 | 9 | 29.9 | CCCCC/C=C/C(=O)CCc1ccc(O)c(OC)c1 [6S, 6-shogaol] |
| > 2 | 67 | 14.1 | CCCCC[C@H](O)CC(=O)CCc1ccc(O)c(OC)c1 [6G, 6-gingerol] |
| > 2 | 6 | 14.0 | CCCCCCCC(O)CC(=O)CCc1ccc(O)c(OC)c1 (stereo not drawn) [8G, 8-gingerol] |
